# Reference: US20240124510A1, “Cyclic Glycoaminoacid Derivatives” (TFCHEM, priority 2021, published 2024)
# Values joined by “and” are separate entries in the source; they are usually repeats but may differ in a detail not shown here. Equal entries are not always repeated.
# What was measured:
# [1] = test system: normal human dermal fibroblasts (NHDF); assay: Signalling pathway analysis (Ingenuity Pathway Analysis, activation z-score); settings: for Activation z- score: 2 mg/ml on NHDF
# From the text: • Results are considered and presented per gene (and not probe). A probe set is a collection of probes designed to interrogate a given sequence of a gene. […] Gene Ontology database has been more specifically used for the data interpretation. DAVID functional annotation part was used to cluster modulated genes into significant biological processes. […] DAVID database uses the Gene Ontology consortium (http://www.geneontology.org) vocabularies (GO terms) to describe gene products in terms of their associated biological processes. Among them, only biological processes with p-value ≤0.05 were taken into account. • Signal transduction pathway analsis: The results were then processed with IPA (Ingenuity Pathway Analysis, Qiagen®) software to identify signal transduction pathways modulated by each treatment. This software takes into account the Fold Change values of each gene and, when there is enough information, the direction of modulation of the signal transduction pathways can be identified. The relevance of the effect of each treatment on a given pathway was quantified by z-score. The z-score predicts the directional change on that effect.
# A more advanced bioinformatics analysis was performed using the Ingenuity Pathway Analysis software (IPA from Qiagen®). This analysis allows the identification of the impacted signalling pathways and predicts their modulation. The modulation is a stimulation when the Activation z-score is a positive value (Table 11) and an inhibition when the Activation z-score is a negative value (Table 12).
# procollagen I = assay: Procollagen I secretion in coculture of human aged fibroblasts and mature adipocytes (ELISA); format: cell-based; settings: for secretion of Procollagen I, normalized by fibroblasts number, in percentage of the coculture control condition, Values: individual replicates
# From the text: In order to evaluate its effect on fibroblast matrix and its anti-inflammatory properties, the effect of compound 6 has been tested on an adipocytes-aged fibroblasts coculture model, mimicking the interactions between dermis and hypodermis in the skin and allowed to explore in parallel the biological effects of the products on two cellular targets.
# • Experimental model: co-culture of human mature adipocytes cultured in 3D and human dermal fibroblasts cultured in 2D (AM3D-FB2D co-culture). This experimental model of AM3D-FB2D co-culture mimicked the interactions between dermis and hypodermis in the skin and allowed to explore in parallel the biological effects of the products on two cellular targets. • Donor characteristics: This study was performed on mature adipocytes and fibroblasts from two different donors (one donor for mature adipocytes and another donor for dermal fibroblasts). • Fibroblasts donor=person, BMI=28 kg/m^2 • Adipocytes donor=person, BMI=21.4 kg/m^2 • Treatment procedure: compound 6 was added to the co-culture medium daily for up to 6 days
# Dermal fibroblasts were seeded in DMEM 10% FBS at 10000 cells/well. The day after, the adipocytes capsules of 50 μl were added in suspension above the fibroblasts and the medium was changed and replaced by a specific culture medium for the co-culture AM3D-FB2D. The formation of adipocytes capsules followed an internal standardized protocol. Briefly, the fully mature adipocytes were isolated from the hypodermis after digestion by collagenase. The isolated adipocytes were then washed with a wash buffer and encapsulated in a peptidic hydrogel to form 3D adipocytes capsules of 50 μl in size. Cells were incubated at 37° C. and 5% CO2 overnight for stabilization. Treatments were initiated at DO with a medium change at DO, D2, D3 and D5. The entire culture media of 24 h incubation was collected at D3 and D6, before being centrifugated and stored at −80° C. Each culture condition was done in triplicate.
# The biochemical analyses on culture media were performed via ELISA using specific kits according to the manufacturer's recommendations: IL-6 (Duoset DY206, R&D Systems), and Hyaluronic Acid (HA) (Duoset, DY3614-05, R&D Systems and Procollagen I (Duoset, DY6220-05, R&D Systems) The results of HA and Procollagen I were normalized by fibroblasts cell number regarding the fact that these molecules were secreted mainly by fibroblasts. All the biochemical results were represented in percentage of the control condition.
# To evaluate the effect of the compound 6 on fibroblasts' matrix, the extracellular concentrations of Procollagen I, that is secreted only by the fibroblasts, were measured at D3 and D6.
# human preadipocytes = assay: Cytotoxicity (LDH release) on preadipocytes in inflammatory condition (AcMC); format: cell-based; settings: for Cytotoxicity at the end of the culture, normalized by cell number, Values: single replicates
# Experimental: Preadipocytes have been isolated from human female hypodermis (body mass index <30 kg/m2 and <45 years old). Preadipocytes have been cultured for 24 h in 100 μl of DMEM-10% Fetal Bovine Serum (FBS) in 96-well plates. Then cells were treated to induce their differentiation in a classical or an inflammatory environment for 13 days.
# To induce the preadipocytes differentiation cells were incubated in a proadipogenic cocktail (PAC) including insulin, glucocorticoid, 3-isobutyl-1-methylxanthine (IBMX), and thiazolinedione in DMEM.
# To induce a fibro-inflammatory environment, cells were treated with an activated human macrophage-conditioned medium (AcMC) prepared in RPMI medium. A treatment with Dexamethasone (DXM) at 100 nM was used as anti-inflammatory response control. At D0: preadipocytes have been treated in the following conditions: • “Undifferentiation”: DMEM+¼ RPMI medium • “Differentiation”: PAC+¼ RPMI medium • “AcMC” i.e. inflammatory condition: PAC+¼ AcMC • “AcMC+DXM”: PAC+[…] AcMC+anti-inflammatory DXM at 100 nM • “AcMc+compounds”: PAC+14 AcMC+compounds to be tested
# All conditions have been performed in triplicate. The medium has been changed every 2 days for 13 days.
# At D14: during the last 24 h of culture, the medium has been replaced by DMEM/F12 medium in all conditions, to collect cells' secretions.
# Cytotoxicity was assessed by the measurement of the lactate dehydrogenase (LDH) released by damaged cells in the culture medium (using the kit CytoTox-One Non-Radioactive Cytotoxicity Assay, G1780, Promega). Cells were treated with 0.2% of triton at the end of the culture to determine the maximal toxicity response. The LDH measurement was realized on 24 h medium secretions after 13 days of culture.
# The results were normalized by cell number, determined by nuclei staining (with DAPI: 4′,6-Diamidino-2-Phenylindole, Dihydrochloride), and were represented in percentage of the lysis positive control. Compounds presenting a level of cytotoxicity below 20% compared to control were considered as non-toxic.
# Quantity of LDH measured in medium was normalized by cell number in each culture condition. Data are represented in percentage of proinflammatory control conditions (AcMC condition).
compound,measurement,setting,value
N[C@H]1CCCN(CC(F)(F)[C@]2(O)O[C@H](CO)[C@H](O)[C@H](O)[C@H]2O)C1=O [Compound 6],Activation z- score,[1]; Diseases or Functions Annotation: Differentiation of adipocytes,0.545
same,Activation z- score,[1]; Diseases or Functions Annotation: Metabolism of cholesterol,1.421
same,Activation z- score,[1]; Diseases or Functions Annotation: Synthesis of cholesterol,0.998
same,Activation z- score,"[1]; Diseases or Functions Annotation: Synthesis of lipids, z-score >0 = increased",1.380
same,"Regulation of fibrogenesis, tensile strength of skin, synthesis of ROS, inflammatory response and chronic inflammatory disorder at a transcriptional level",[1]; treatment of NHDF,down regulation
same,Regulation of lipid and cholesterol synthesis and differentiation of adipocytes at a transcriptional level,[1]; treatment of NHDF,up regulation
same,"secretion of Procollagen I, normalized by fibroblasts number, in percentage of the coculture control condition, Mean","procollagen I; D3, 1 mg/ml",163%
same,"secretion of Procollagen I, normalized by fibroblasts number, in percentage of the coculture control condition, Values","procollagen I; D3, 1 mg/ml",162% and 158% and 168%
same,"secretion of Procollagen I, normalized by fibroblasts number, in percentage of the coculture control condition, Mean","procollagen I; D3, 2 mg/ml",159%
same,"secretion of Procollagen I, normalized by fibroblasts number, in percentage of the coculture control condition, Values","procollagen I; D3, 2 mg/ml",177% and 144% and 157%
same,"secretion of Procollagen I, normalized by fibroblasts number, in percentage of the coculture control condition, Mean","procollagen I; D3, 3 mg/ml",173%
same,"secretion of Procollagen I, normalized by fibroblasts number, in percentage of the coculture control condition, Values","procollagen I; D3, 3 mg/ml",202% and 78% and 238%
same,"secretion of Procollagen I, normalized by fibroblasts number, in percentage of the coculture control condition, Mean","procollagen I; D6, 1 mg/ml",418%
same,"secretion of Procollagen I, normalized by fibroblasts number, in percentage of the coculture control condition, Values","procollagen I; D6, 1 mg/ml",312% and 472% and 469%
same,"secretion of Procollagen I, normalized by fibroblasts number, in percentage of the coculture control condition, Mean","procollagen I; D6, 2 mg/ml",411%
same,"secretion of Procollagen I, normalized by fibroblasts number, in percentage of the coculture control condition, Values","procollagen I; D6, 2 mg/ml",284% and 488% and 460%
same,"secretion of Procollagen I, normalized by fibroblasts number, in percentage of the coculture control condition, Mean","procollagen I; D6, 3 mg/ml",474%
same,"secretion of Procollagen I, normalized by fibroblasts number, in percentage of the coculture control condition, Values","procollagen I; D6, 3 mg/ml",515% and 398% and 508%
same,"Cytotoxicity at the end of the culture, normalized by cell number, Mean",human preadipocytes; AcMC + 1 mg/ml,81.7 % of AcMC condition
same,"Cytotoxicity at the end of the culture, normalized by cell number, Values",human preadipocytes; AcMC + 1 mg/ml,53.1 % of AcMC condition and 81.8 % of AcMC condition and 110.4 % of AcMC condition
same,"Cytotoxicity at the end of the culture, normalized by cell number, Mean",human preadipocytes; AcMC + 2 mg/ml,53.3 % of AcMC condition
same,"Cytotoxicity at the end of the culture, normalized by cell number, Values",human preadipocytes; AcMC + 2 mg/ml,50.5 % of AcMC condition and 50.6 % of AcMC condition and 58.9 % of AcMC condition
